Here are results for three compounds from patent US7129215B2, “Tripeptide and tetrapeptide thioethers” (Telik, Inc., priority 2005, dated 2006).

pIC50: −log10 of the molar value. Read-outs that look alike come from different tables or passages of the source. *1 amine or outer side, *2 acyl side, *3 side chain or, on linkers, in order; H or OH if unused. Where a SMILES comes first, the peptide text is derived from it. [ ]: non-standard residue; d: D form. The star is where a group is joined. γGlu = O=C(O)[C@H](CCC(=O)[*:2])N[*:1]; dPhg = N[C@@H](C(=O)O)c1ccccc1; Bn = c1ccc(C*)cc1

Series [1] deals with T1, Recombinant human GST M1-1 (Homo sapiens, UniProt P09488).
T1 construct: purchased EMD Biosciences, Inc., San Diego, Calif., U.S.A
T1 sequence (P09488 2-218 limits assumed): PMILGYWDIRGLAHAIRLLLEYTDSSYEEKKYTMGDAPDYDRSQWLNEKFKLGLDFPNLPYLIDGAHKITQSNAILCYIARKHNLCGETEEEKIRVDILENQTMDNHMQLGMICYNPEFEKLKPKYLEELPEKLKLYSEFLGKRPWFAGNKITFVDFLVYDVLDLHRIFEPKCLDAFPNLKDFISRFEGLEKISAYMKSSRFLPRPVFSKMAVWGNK
Kind of series: Inhibition of glutathione S-transferase isoenzyme GST M1-1. Type of series: biochemical. The method, then:
(§1) Inhibition of glutathione S-transferase isoenzymes.
(§2) For each assay, the test compound and GSH were added to the isoenzyme. Immediately after the addition of CDNB solution to the isoenzyme/compound/GSH solution, the absorbance at 340 nm was recorded continuously for 5 min on a SpectraMax plate reader (Molecular Devices, Inc., Sunnyvale, Calif., U.S.A.). The GST inhibitory activity of each compound was calculated from the slopes of the absorbance/time curves at the various concentrations of test compound. All assays were conducted in duplicate wells, with DMSO control, with the final DMSO concentration maintained at 2%.

The target of series [2] is T2, Recombinant human GST P1-1 (Homo sapiens, UniProt P09211).
T2 construct: purchased EMD Biosciences, Inc., San Diego, Calif., U.S.A
T2 sequence (P09211 2-210 limits assumed): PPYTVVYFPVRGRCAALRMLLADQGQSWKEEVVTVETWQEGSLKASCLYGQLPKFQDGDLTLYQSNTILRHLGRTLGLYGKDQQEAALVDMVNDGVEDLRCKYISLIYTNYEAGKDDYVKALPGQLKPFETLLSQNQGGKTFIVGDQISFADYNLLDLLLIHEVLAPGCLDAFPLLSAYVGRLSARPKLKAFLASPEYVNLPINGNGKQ
Kind of series: Inhibition of glutathione S-transferase isoenzyme GST P1-1. Type of series: biochemical. The procedure:
as §1, §2

The target of series [3] is T2, Recombinant human GST P1-1. Particulars: background statement; read-out: GST P1-1 IC50 (related art statement); cited from earlier work.
For a further series, the target named is T3, GSTπ (Homo sapiens, UniProt P09211).
T3 construct: endogenous in cells; host or cells: HL-60 (human promyeloid myelocytic leukemia)
T3 sequence (P09211 2-210 limits assumed): as above
Kind of series: GSTπ immunoprecipitation assay in HL60 cells. Type of series: cell-based. Particulars: HL-60, read-out: GSTπ inhibition, %. The procedure:
In vitro example 3. GSTπ immunoprecipitation assay. This example illustrates the beneficial effects of compounds of this invention in causing GSTπ immunoprecipitation. […] HL60 cells were seeded at 6×10^5 cells/mL in 20 mL RPMI-1640 medium supplemented with 10% fetal bovine serum, 1 mM glutamine and 20 μM gentamycin in a T75 flask and cultured overnight in 5% CO2 atmosphere at 37° C. […] Following the treatment, the cells were collected by centrifugation and washed twice with phosphate-buffered saline. The cell pellets were resuspended in 1 mL lysis buffer (50 mM Tris, pH 8.0, 120 mM NaCl, 0.5% NP-40 surfactant, 100 mM NaF; to which protease and phosphatase inhibitors (Roche Diagnostics, Indianapolis, Ind., U.S.A.) had been added before use) and incubated with gentle agitation for 30 minutes at 4° C. The cell lysates were cleared by centrifugation at 13,000 rpm for 10 minutes to remove cell debris. […] Following overnight incubation at 4° C., 30 μL of Protein A/G agarose beads (Pierce, Rockford, Ill.) were added to the mixture and incubated for 1 hour at 4° C. […] GSTπ protein bands were visualized and band intensity quantified on Odyssey infrared scanner (Li-Cor, Lincoln, Nebr., U.S.A.). The band intensity from a compound treatment was compared to its corresponding DMSO control and expressed as percent inhibition.

In series [4] the target is T4, Recombinant human GST A1-1 (Homo sapiens, UniProt P08263).
T4 construct: purchased EMD Biosciences, Inc., San Diego, Calif., U.S.A
T4 sequence (P08263 1-222): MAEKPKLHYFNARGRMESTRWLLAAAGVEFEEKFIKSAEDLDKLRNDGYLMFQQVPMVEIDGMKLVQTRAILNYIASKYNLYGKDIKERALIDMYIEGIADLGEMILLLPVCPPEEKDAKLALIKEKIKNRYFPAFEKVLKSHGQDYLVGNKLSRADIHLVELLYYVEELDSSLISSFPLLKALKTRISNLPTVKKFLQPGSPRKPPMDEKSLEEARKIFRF
Kind of series: Inhibition of glutathione S-transferase isoenzyme GST A1-1. The format is biochemical. The procedure: as §1, §2

Series [5] has as its system HL-60 human leukemia cell line. As to the kind of experiment: Cytotoxicity in HL-60 cells (CellTiter-Glo). Particulars: read-out: HL-60 CC50 (concentration that causes 50% growth inhibition); diethyl ester compounds (1B to 12B, TLK199); 72 hours.
Protocol: Cytotoxicity in HL-60 cells.
The cells were then incubated for 72 hours (approximately three doubling times). The cells were then harvested by centrifugation (1200 rpm for 5 min at 20° C.), and 100 μL of the culture supernatant was removed and replaced by the same volume of the CellTiter-Glo reagent. After incubation for 10 minutes at room temperature with constant mixing, the plate was read with a luminometer, with the number of live cells being proportional to the observed luminescence. All assays were conducted in triplicate wells, with DMSO solvent control.
The conditions of series [6]: normal animals and animals depleted by cisplatin or fluorouracil; cited from earlier work.
The subject of series [7] is hematopoietic progenitor cells. Particulars: normal human peripheral blood; cited from earlier work.
Series [8] has as its system HL-60 cells. Kind of series: Enhancement of differentiation of HL-60 cells (CD11b expression, flow cytometry). Type of series: cell-based, human. Particulars: diethyl ester compounds; 24 hours; CD11b expression vs DMSO control. The procedure: Some of the diethyl ester compounds of this invention were also tested for their ability to enhance the differentiation of HL-60 cells. This illustrates the beneficial effect of the compounds of this invention in stimulating differentiation of the HL-60 human leukemia cell line in vitro. […] The cells were harvested by centrifugation (1250 rpm for 5 min at 20° C.) and washed with 2 mL ice-cold phosphate-buffered saline (PBS) containing 2% FBS, then stained with 10 μL phycoerythrin-conjugated anti-CD11b antibody or 10 μL phycoerythrin-conjugated isotype control antibody. After standing for 30 min on ice, the cells were re-suspended in 2 mL ice-cold PBS containing 2% FBS. The cells were harvested by centrifugation (1250 rpm for 5 min at 20° C.) and resuspended in 0.4 mL PBS containing 2% FBS. The specific cell surface expression of CD11b, a marker for granulocytes and monocytes, was detected by flow cytometry using a FACSCalibur analyzer (BD Biosciences). All assays were conducted in triplicate, with DMSO control. The extent of differentiation was expressed as a multiple of the signal from the DMSO control.

For series [9] the following is noted: Phase II, MDS, interim results; cited from earlier work.
For series [10], the system named is HL-60 cells. Particulars: background statement; cited from earlier work.
For series [11] the following is noted: both in vitro and in vivo; cited from earlier work.

As to `N[C@@H](CCC(=O)N[C@@H](CSCc1ccccc1)C(=O)N[C@@H](C(=O)O)c1ccccc1)C(=O)O` [TLK117, L-γ-glutamyl-S-(phenylmethyl)-L-cysteinyl-D-phenylglycine] (γGlu-Cys(Bn)-[dPhg]-OH), the negative-log IC50 (pIC50) is 4.15 in series [1], 6.39 in series [2], roughly 6.40 in series [3] and 4.77 in series [4]. For the same compound, the inhibition at 20 µM on GSTπ amounted to 90%.
Take `N[C@@H](CCC(=O)N[C@@H](CSCc1ccc(Cl)cc1)C(=O)N[C@@H](C(=O)O)c1ccccc1)C(=O)O` [TLK137]: the pIC50 is 5.19 in series [1] (diacid compounds, GSH and CDNB at 2×Km, pH 6.5, read-out: GST M1-1 IC50); 7.28 in series [2] (diacid compounds (1A to 12A, TLK117, TLK137), GSH and CDNB at 2×Km, pH 6.5); 5.00 in series [4] (diacid compounds, GSH and CDNB at 2×Km, pH 6.5, read-out: GST A1-1 IC50). Besides, the CC50 in series [5] was 10 µM.
For `CCOC(=O)[C@@H](N)CCC(=O)N[C@@H](CSCc1ccccc1)C(=O)N[C@@H](C(=O)OCC)c1ccccc1` [TLK199], in [6], the “White blood cell production” value is recorded as “increase white blood cell production”. Besides, in series [7], the “Colony formation of hematopoietic progenitor cells” value is “stimulate colony formation of all three lineages”. Moreover, in the series with HL-60 cells [8], the “Enhancement of differentiation of HL-60 cells” value was “enhances differentiation”. Moreover, in series [9], the Hematologic improvement result is listed as “multilineage hematologic improvement” and the Tolerability result is listed as “well tolerated”. Also, in the series on HL-60 cells [10], the “Differentiation of HL-60 promyelocytic leukemia cells in vitro” value was “induce the differentiation”. Also, the “Potentiation of the activity of cytotoxic agents” value in series [11] was “potentiate the activity of cytotoxic agents”.
